# Reference: US7994167B2, “Pentafluorosulphanyl-substituted compound and its use for producing medicaments” (Gruenenthal GmbH, priority 2005, dated 2011)
# Where two headings read alike, the source gives them in different places.
# Columns and labels:
# [1] = molecular target: T1, vanilloid receptor 1 (VR1/TRPV1) of the rat (Rattus norvegicus, UniProt O35433); assay: FLIPR Ca2+ influx assay in rat dorsal root ganglia cells (functional investigation I); type: cell-based; conditions: for IC50: VR1 rat; for VR1 (rat) (% blocking compared with 1 μM CP) / VR1 (rat) (% stimulation compared with 1 μM CP): rat DRG cells, test compound 1 μM; for VR1 (rat) (% blocking compared with 1 μM CP): 5 min incubation, then 100 nM capsaicin; for VR1 (rat) (% stimulation compared with 1 μM CP): Ca2+ signal relative to 1 μM capsaicin (CP)
# T1 construct: The spinal column was removed from decapitated rats; from tissue; host or cells: primary rat dorsal root ganglion (DRG) cells
# Excerpt: I. Functional Investigation Using the Vanilloid Receptor 1 (VR1/TRPV1 Receptor)
# The agonistic and antagonistic effects of the substances under investigation on the vanilloid receptor 1 (VR1/TRPV1) of the rat can be determined using the following assay. According to this assay, the Ca^2+ influx through the receptor channel is quantified with the aid of a Ca^2+-sensitive dye (of the type Fluo-4, from Molecular Probes Europe BV, Leiden, Netherlands) in a Fluorescent Imaging Plate Reader (FLIPR, from Molecular Devices, Sunnyvale, USA).
# Complete medium: 10% by volume FCS (foetal calf serum, from Gibco Invitrogen GmbH, Karlsruhe, Germany, heat deactivated);
# 2 mM L-glutamine (from Sigma, Munich, Germany);
# 1% by weight of AA solution (antibiotic/antimycotic solution, from PAA, Pasching, Austria) and 25 ng/ml Medium NGF (2.5 S, from Gibco Invitrogen GmbH, Karlsruhe, Germany)
# Cell culture plate: poly-D-lysine-coated, black 96-well plates with clear bases (96 well black/clear plate, from BD Biosciences, Heidelberg, Germany) were also coated with laminin (from Gibco Invitrogen GmbH, Karlsruhe, Germany), in that the laminin was diluted to a concentration of 100 μg/ml with PBS (Ca—Mg-free PBS, from Gibco Invitrogen GmbH, Karlsruhe, Germany). Aliquots with a concentration of 100 μg/ml of laminin were taken and stored at −20° C. The aliquots were diluted with PBS in a ratio of 1:10 to 10 μg/ml laminin and 50 μl of the solution was pipetted into each well in the cell culture plate. The cell culture plates were then incubated for at least two hours at 37° C., the residual solution drawn off and the wells washed twice with PBS. The coated cell culture plates were stored with the residual PBS, which was removed immediately before offering up the cells.
# Preparation of the Cells:
# The spinal column was removed from decapitated rats and laid directly into cold (placed in an ice bath) HBSS buffer (Hank's buffered saline solution, from Gibco Invitrogen GmbH, Karlsruhe, Germany) to which was added 1% by volume of an AA-solution (antibiotic/antimycotic solution, from PAA, Pasching, Austria). The spinal column was bisected longitudinally and removed, together with the fasciae, from the vertebral canal. The dorsal root ganglia (DRGs) were then removed and again placed in cold HBSS buffer to which was added 1% by volume of an AA-solution, and stored. The DRGs, completely freed from residual blood and spinal nerves were transferred, in each case, into 500 μl cold collagenase type 2 (from PAA, Pasching, Austria) and incubated for 35 minutes at 37° C. Following addition of 2.5% by volume of trypsin (from PAA, Pasching, Austria), the material was incubated for a further 10 minutes at 37° C. Following complete incubation, the enzyme solution was carefully pipetted off and 500 μl complete medium was added to the remaining DRGs. The DRGs were suspended several times in each case, drawn by means of a syringe through No. 1, No. 12 and No. 16 cannulae and transferred to 50 ml Falcon tubes and these then filled to 15 ml with complete medium. The contents of each Falcon tube was filtered through a 70 μm Falcon filter insert and centrifuged for 10 minutes at 1200 revolutions and at room temperature. The resulting pellet was added, in each case, to 250 μl complete medium and the cell count was determined.
# The number of cells in the suspension was adjusted to 3×10^5 per ml and, in each case, 150 μl of this suspension was placed in a well in the coated cell culture plate of the type described above. The plates were left in an incubation cupboard at 37° C. under 5% by volume CO2 and 95% relative humidity for two to three days. […]
# VR1 (human) = molecular target: T2, VR1 (human) (Homo sapiens, UniProt Q8NER1); assay: FLIPR Ca2+ influx assay in CHO K1 cells stably transfected with the VR1 gene (functional investigation II); type: cell-based; conditions: for VR1 (human) (% blocking compared with 1 μM CP) / VR1 (human) (% stimulation compared with 1 μM CP): VR1-transfected CHO K1 cells; for VR1 (human) (% blocking compared with 1 μM CP): 5 min incubation, then 100 nM capsaicin; for VR1 (human) (% stimulation compared with 1 μM CP): Ca2+ signal relative to capsaicin (CP)
# T2 construct: expressed in transfected cells; host or cells: CHO K1 cells (ECACC)
# Excerpt: II. Functional Investigation Using the Vanilloid Receptor (VR1)
# The agonistic or antagonistic effect of the substances to be investigated on the vanilloid receptor (VR1) can also be determined with the following assay. According to this assay, the Ca^2+ influx through the channel can be quantified with the aid of a Ca^2+ sensitive dye (of the type Fluo-4, from Molecular Probes, Europe BV, Leiden, Netherlands) in a Fluorescent Imaging Plate Reader (FLIPR, from Molecular Devices, Sunnyvale, USA).
# Chinese hamster ovary cells (CHO K1-cells, from the European Collection of Cell Cultures (ECACC), UK) were stably transfected with the VR1 gene. For functional investigations, these cells were plated out on Poly-D-lysine-coated, black 96-well plates with clear bases (from BD Biosciences, Heidelberg, Germany) at a density of 25,000 cells/well. The cells were incubated over night at 37° C. and under 5% CO2 in a culture medium (Nutrient Mixture Ham's F12, 10% by volume FCS (foetal calf serum), 18 μg/ml L-proline). The following day, the cells were incubated with Fluo-4 (Fluo-4 2 μM, Pluronic F127 0.01% by volume, from Molecular Probes in HBSS (Hank's buffered saline solution), from Gibco Invitrogen GmbH, Karlsruhe, Germany) for 30 minutes at 37° C. Subsequently, the plates were washed 3 times with HBSS buffer and, following a further period of incubation for 15 minutes at room temperature, placed in the FLIPR for Ca^2+ measurement. The Ca^2+-dependent fluorescence was measured before and after the addition of the substances to be investigated (wavelength λBX=488 nm, λem=540 nm). Quantification took place by measuring the highest intensity of fluorescence (FC, fluorescence counts) over time.
# The FLIPR protocol comprises 2 substance additions. […] Following 5 minutes of incubation, 100 nM capsaicin were applied and the Ca^2+ influx determined again.
# Desensitising agonists and antagonists lead to a suppression of the Ca^2+ influx. % inhibition is calculated, compared with the maximum achievable inhibition with 10 μM capsaicin.
# [2] = molecular target: vanilloid receptor 1 (VR1/TRPV1 receptor) (Homo sapiens, UniProt Q8NER1); assay: Binding affinity for the vanilloid receptor 1
# Description: The affinity of the pentafluorosulphanyl-substituted compounds according to the invention for the vanilloid receptor 1 (VR1/TRPV1 receptor) was determined as described above.
# Sequence of vanilloid receptor 1 (VR1/TRPV1 receptor) (Q8NER1 whole entry, species assumed): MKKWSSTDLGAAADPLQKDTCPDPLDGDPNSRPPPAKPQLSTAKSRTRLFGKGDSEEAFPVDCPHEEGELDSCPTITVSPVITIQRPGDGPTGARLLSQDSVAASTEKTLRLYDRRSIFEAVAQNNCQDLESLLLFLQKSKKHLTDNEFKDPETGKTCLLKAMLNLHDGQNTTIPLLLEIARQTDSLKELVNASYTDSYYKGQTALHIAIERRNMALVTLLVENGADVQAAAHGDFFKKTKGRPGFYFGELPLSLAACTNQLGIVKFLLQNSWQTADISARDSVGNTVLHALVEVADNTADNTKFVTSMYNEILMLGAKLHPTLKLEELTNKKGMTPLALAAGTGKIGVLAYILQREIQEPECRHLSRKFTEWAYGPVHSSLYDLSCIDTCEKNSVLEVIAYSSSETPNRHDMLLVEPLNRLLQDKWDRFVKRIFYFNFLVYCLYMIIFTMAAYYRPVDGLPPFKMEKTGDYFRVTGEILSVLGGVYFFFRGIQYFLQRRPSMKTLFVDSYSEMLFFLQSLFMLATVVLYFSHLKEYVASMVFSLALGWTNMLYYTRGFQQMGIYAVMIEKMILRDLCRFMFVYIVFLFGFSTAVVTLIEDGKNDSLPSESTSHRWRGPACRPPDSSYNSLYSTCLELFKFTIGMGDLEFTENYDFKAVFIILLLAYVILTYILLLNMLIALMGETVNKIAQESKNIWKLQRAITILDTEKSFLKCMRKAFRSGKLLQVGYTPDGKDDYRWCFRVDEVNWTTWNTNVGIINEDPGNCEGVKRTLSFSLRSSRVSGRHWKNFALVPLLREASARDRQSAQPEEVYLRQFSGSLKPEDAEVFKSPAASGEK
# T2 sequence (Q8NER1 whole entry): as the sequence (Q8NER1 whole entry, species assumed) above
# T1 sequence (O35433 whole entry): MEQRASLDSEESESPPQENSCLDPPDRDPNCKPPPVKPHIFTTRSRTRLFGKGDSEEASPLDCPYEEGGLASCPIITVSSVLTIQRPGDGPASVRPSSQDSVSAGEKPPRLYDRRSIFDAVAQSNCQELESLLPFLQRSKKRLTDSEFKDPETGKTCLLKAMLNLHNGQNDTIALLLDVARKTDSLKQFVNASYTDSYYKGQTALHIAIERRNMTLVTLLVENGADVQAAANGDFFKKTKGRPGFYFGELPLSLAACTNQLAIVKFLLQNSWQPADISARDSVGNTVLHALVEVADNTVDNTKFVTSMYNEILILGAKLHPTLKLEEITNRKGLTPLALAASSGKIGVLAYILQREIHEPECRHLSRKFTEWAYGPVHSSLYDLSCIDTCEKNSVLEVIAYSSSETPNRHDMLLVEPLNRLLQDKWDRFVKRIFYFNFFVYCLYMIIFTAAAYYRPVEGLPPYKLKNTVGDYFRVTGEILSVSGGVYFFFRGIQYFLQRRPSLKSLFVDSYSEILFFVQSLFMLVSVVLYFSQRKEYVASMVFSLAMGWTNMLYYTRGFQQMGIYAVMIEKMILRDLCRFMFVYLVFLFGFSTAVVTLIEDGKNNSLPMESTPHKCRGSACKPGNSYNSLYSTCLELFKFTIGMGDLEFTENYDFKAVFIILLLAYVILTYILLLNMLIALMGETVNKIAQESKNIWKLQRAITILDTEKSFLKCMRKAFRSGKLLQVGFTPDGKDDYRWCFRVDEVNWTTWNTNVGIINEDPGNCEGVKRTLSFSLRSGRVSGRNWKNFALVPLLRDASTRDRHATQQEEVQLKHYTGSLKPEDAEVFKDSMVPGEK
SMILES,IC50 [1],VR1 (rat) (% blocking compared with 1 μM CP) [1],VR1 (rat) (% stimulation compared with 1 μM CP) [1],VR1 (human) (% blocking compared with 1 μM CP) (VR1 (human)),VR1 (human) (% stimulation compared with 1 μM CP) (VR1 (human)),"IC50 (VR1 (human); VR1 human, read-out: IC50 (human))",Ki ([2]; read-out: Binding Ki),IC50 (VR1 (human)),Ki [2]
"CS(=O)(=O)Nc1ccc(CNC(=S)NCc2ccc(S(F)(F)(F)(F)F)cc2)cc1F [Example 1, N-{4-[3-(4-pentafluorosulphanyl-benzyl)-thioureidomethyl]-2-fluoro-phenyl}-methanesulphonamide]",360 nM,90.27%,0.02%,87.67%,0.68%,800 nM,84 nM,–,–
"O=C(Nc1ccc(S(F)(F)(F)(F)F)cc1)N1CCN(c2ncccc2Cl)CC1 [Example 2, 4-(3-chloro-pyridin-2-yl)-piperazine-1-carboxy-(4-pentafluorosulphanyl-phenyl)-amide]",48 nM,101.93%,0.63%,105.44%,3.72%,–,–,250 nM,12 nM
"FS(F)(F)(F)(F)c1ccc(NC(=S)N2CCN(c3ncccc3Cl)CC2)cc1 [Example 3, 4-(3-chloro-pyridin-2-yl)-piperazine-1-thiocarboxy-(4-pentafluorosulphanyl-phenyl)-amide]",–,–,–,–,–,–,94 nM,–,–
